Values quoted from earlier work as cited in PMC5742115, “Pharmacophore Modeling and in Silico/in Vitro Screening for Human Cytochrome P450 11B1 and Cytochrome P450 11B2 Inhibitors” (Frontiers in Chemistry, 2017).
Where two headings read alike, the source gives them in different places.

Columns and labels:
CYP11B2 = conditions: reported activity, supplementary Table 1, read-out: CYP11B2 IC50, cited from earlier work
CYP11B1 = conditions: reported activity, supplementary Table 1, read-out: CYP11B1 IC50, cited from earlier work

## C(=C1c2ccccc2-c2ccccc21)c1cccnc1 [CHEMBL194928]
CYP11B2; ref Ulmschneider et al., 2005a
  IC50: 6 nM

## Fc1ccc2c(c1)CC/C2=C\c1cncnc1 [CHEMBL195248]
CYP11B2; ref Ulmschneider et al., 2005b
  IC50: 6 nM
CYP11B1; ref Ulmschneider et al., 2005b
  IC50: 27 nM

## COc1ccc2c(c1)CC/C2=C/c1cncs1 [CHEMBL195354]
CYP11B2; ref Ulmschneider et al., 2005a
  IC50: 5 nM

## Oc1ccc2cc(-c3cccnc3)ccc2c1 [CHEMBL195571]
CYP11B2; ref Voets et al., 2005
  IC50: 23 nM

## Fc1ccc2c(c1)CC/C2=C\c1cccc2ncccc12 [CHEMBL195580]
CYP11B2; ref Ulmschneider et al., 2005a
  IC50: 14 nM

## Fc1ccc2c(c1)CC/C2=C/c1cccc2ncccc12 [CHEMBL195653]
CYP11B2; ref Ulmschneider et al., 2005a
  IC50: 31 nM

## c1ccc2cc(-n3ccnc3)ccc2c1 [CHEMBL195996]
CYP11B2; ref Voets et al., 2005
  IC50: 39 nM
CYP11B1; ref Voets et al., 2005
  IC50: 1320 nM

## COc1ccc2cc(-c3cccnc3)ccc2c1Br [CHEMBL196328]
CYP11B2; ref Voets et al., 2005
  IC50: 33 nM
CYP11B1; ref Voets et al., 2005
  IC50: 4480 nM

## N#Cc1ccc2cc(-c3cccnc3)ccc2c1 [CHEMBL196796]
CYP11B2; ref Voets et al., 2005
  IC50: 3 nM
CYP11B1; ref Voets et al., 2005
  IC50: 691 nM

## COc1ccc2cc(-c3cccnc3)ccc2c1Cl [CHEMBL197576]
CYP11B2; ref Voets et al., 2005
  IC50: 13 nM
CYP11B1; ref Voets et al., 2005
  IC50: 2520 nM

## c1cncc(-c2ccc3c4c(cccc24)CC3)c1 [CHEMBL199683]
CYP11B2; ref Ulmschneider et al., 2006
  IC50: 14 nM

## c1ccc(-c2nc3ncc[nH]c-3n2)nc1 [CHEMBL201143]
CYP11B2; ref Hille et al., 2011a
  IC50: 251 nM
CYP11B1; ref Hille et al., 2011a
  IC50: 16 nM

## COc1ccc2c(c1)C=C(c1cccnc1)CC2 [CHEMBL206273]
CYP11B2; ref Voets et al., 2006
  IC50: 5 nM

## O=c1cc(Cn2ccnc2)c2ccc(OCc3ccccc3)cc2o1 [CHEMBL225499]
CYP11B2; ref Stefanachi et al., 2011
  IC50: 289 nM
CYP11B1; ref Stefanachi et al., 2011
  IC50: 72 nM

## COc1ccc2c(c1)CC/C2=C\c1ccncc1 [CHEMBL359942]
CYP11B2; ref Ulmschneider et al., 2005a
  IC50: 59 nM

## C(=C1/CCCc2ccccc21)/c1ccncc1 [CHEMBL360026]
CYP11B2; ref Ulmschneider et al., 2005a
  IC50: 15 nM
CYP11B1; ref Ulmschneider et al., 2005a
  IC50: 143 nM

## COc1ccc2c(c1)CCC/C2=C\c1cccnc1 [CHEMBL362441]
CYP11B2; ref Ulmschneider et al., 2005a
  IC50: 57 nM
CYP11B1; ref Ulmschneider et al., 2005a
  IC50: 903 nM

## C(=C1\CCc2ccccc21)/c1cccnc1 [CHEMBL363621]
CYP11B2; ref Ulmschneider et al., 2005b
  IC50: 92 nM
CYP11B1; ref Ulmschneider et al., 2005b
  IC50: 87 nM

## Fc1ccc2c(c1)CC/C2=C/c1cccc2cnccc12 [CHEMBL363849]
CYP11B2; ref Ulmschneider et al., 2005b
  IC50: 65 nM
CYP11B1; ref Ulmschneider et al., 2005b
  IC50: 26 nM

## C(=C1/CCc2ccccc21)/c1cccnc1 [CHEMBL364080]
CYP11B2; ref Ulmschneider et al., 2005a
  IC50: 11 nM
CYP11B1; ref Ulmschneider et al., 2005a
  IC50: 888 nM

## COc1ccc2c(c1)/C(=C/c1ccncc1)CC2 [CHEMBL365314]
CYP11B2; ref Ulmschneider et al., 2005a
  IC50: 3 nM

## Fc1cccc2c1CC/C2=C\c1cccnc1 [CHEMBL366490]
CYP11B2; ref Ulmschneider et al., 2005a
  IC50: 21 nM
CYP11B1; ref Ulmschneider et al., 2005a
  IC50: 774 nM

## Brc1ccc2c(c1)CC/C2=C\c1ccncc1 [CHEMBL366773]
CYP11B2; ref Ulmschneider et al., 2005a
  IC50: 24 nM
CYP11B1; ref Ulmschneider et al., 2005a
  IC50: 2640 nM

## C(=C1\CCCc2ccccc21)/c1c[nH]cn1 [CHEMBL367719]
CYP11B2; ref Ulmschneider et al., 2005b
  IC50: 9.6 nM
CYP11B1; ref Ulmschneider et al., 2005b
  IC50: 3.3 nM

## Clc1cccc2c1CC/C2=C/c1cccnc1 [CHEMBL369623]
CYP11B2; ref Ulmschneider et al., 2005a
  IC50: 31 nM
CYP11B1; ref Ulmschneider et al., 2005a
  IC50: 657 nM

## COc1ccc2c(c1)/C(=C\c1ccncc1)CC2 [CHEMBL370281]
CYP11B2; ref Ulmschneider et al., 2005a
  IC50: 26 nM

## C(=C(c1ccccc1)c1ccccc1)c1cccnc1 [CHEMBL370317]
CYP11B2; ref Ulmschneider et al., 2005a
  IC50: 9 nM

## Fc1ccc2c(c1)CC/C2=C\c1cccc2cnccc12 [CHEMBL370530]
CYP11B2; ref Ulmschneider et al., 2005b
  IC50: 57 nM
CYP11B1; ref Ulmschneider et al., 2005b
  IC50: 58 nM

## Fc1ccc2c(c1)CC/C2=C/c1ccnc2ccccc12 [CHEMBL371275]
CYP11B2; ref Ulmschneider et al., 2005a
  IC50: 14 nM

## Fc1ccc2c(c1)CC/C2=C\c1ccnc2ccccc12 [CHEMBL371509]
CYP11B2; ref Ulmschneider et al., 2005a
  IC50: 20 nM

## Cc1ccc2c(c1)/C(=C/c1ccncc1)CC2 [CHEMBL371742]
CYP11B2; ref Ulmschneider et al., 2005a
  IC50: 4 nM

## c1cncc(-c2ccc3cccc4c3c2CC4)c1 [CHEMBL372747]
CYP11B2; ref Ulmschneider et al., 2006
  IC50: 10 nM

## CC1C/C(=C/c2cccnc2)c2ccccc21 (stereo not drawn) [CHEMBL373074]
CYP11B2; ref Ulmschneider et al., 2005a
  IC50: 41 nM

## COc1ccc2c(Cl)c(-c3cccnc3)ccc2c1Cl [CHEMBL381014]
CYP11B2; ref Voets et al., 2005
  IC50: 28 nM
CYP11B1; ref Voets et al., 2005
  IC50: 4900 nM

## C(=C(c1ccccc1)c1ccccc1)c1ccncc1 [CHEMBL381194]
CYP11B2; ref Ulmschneider et al., 2005a
  IC50: 22 nM

## C(=C1c2ccccc2-c2ccccc21)c1ccncc1 [CHEMBL383145]
CYP11B2; ref Ulmschneider et al., 2005a
  IC50: 5 nM

## COc1ccc(Cn2cncc2CCCO)cc1 [CHEMBL597577]
CYP11B2; ref Roumen et al., 2010
  IC50: 59 nM

## c1ccc2c(c1)ncn2CC12CC3CC(CC(C3)C1)C2 [CHEMBL1651506]
CYP11B1; ref Hille et al., 2011b
  IC50: 75 nM

## CC(C)C(c1ccc(-c2ccccc2)nc1)n1ccnc1 (stereo not drawn) [CHEMBL2417622]
CYP11B2; ref Emmerich et al., 2013
  IC50: 28 nM
